Test results reported in PubChem BioAssay (NCI).
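Step 1: Grow cells in 96-well plates. Step 2: Expose to compound for 48 hours at 5 concentrations. Step 3: Interpolate endpoints linearly; if unreached, use highest concentration. At the GI50, growth is halved. TGI: concentration producing complete growth inhibition.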

Columns and labels:
Test in all cases: NCI-60 cell line screen, 48 h; in the data active means GI50 below about 0.43 µM; inactive means the rest
[1] = system: CCRF-CEM leukemia
[2] = system: HOP-62 NSCLC
[3] = system: SR leukemia
[4] = system: UACC-62 melanoma
[5] = system: OVCAR-5 ovarian
[6] = system: OVCAR-4 ovarian
[7] = system: NCI-H226 lung
[8] = system: SK-MEL-5 melanoma
[9] = system: SF-295 CNS
[10] = system: IGROV1 ovarian
[11] = system: UACC-257 melanoma
[12] = system: HCT-15 colon
[13] = system: HS 578T breast
[14] = system: UO-31 renal
[15] = system: SK-MEL-28 melanoma
[16] = system: NCI/ADR-RES ovarian
[17] = system: SNB-19 CNS
[18] = system: SK-MEL-2 melanoma
[19] = system: ACHN renal
[20] = system: SK-OV-3 ovarian
[21] = system: 786-0 renal
[22] = system: MDA-MB-435
[23] = system: HCT-116 colon
[24] = system: RPMI-8226 leukemia
[25] = system: NCI-H23 lung
[26] = system: U251 CNS
[27] = system: CAKI-1 renal
[28] = system: LOX IMVI melanoma
[29] = system: K-562 leukemia
[30] = system: PC-3 prostate
[31] = system: NCI-H522 lung
[32] = system: M14 melanoma
[33] = system: HL-60(TB) leukemia
[34] = system: EKVX NSCLC
[35] = system: OVCAR-3 ovarian
[36] = system: HT29 colon
[37] = system: DU-145 prostate
[38] = system: TK-10 renal
[39] = system: NCI-H460 lung
[40] = system: HOP-92 NSCLC
[41] = system: BT-549 breast
[42] = system: HCC-2998 colon
[43] = system: MALME-3M melanoma
[44] = system: KM12 colon
[45] = system: RXF 393 renal
[46] = system: SW-620 colon
[47] = system: A498 renal
[48] = system: SF-268 CNS
[49] = system: A549 NSCLC
[50] = system: SNB-75 CNS
[51] = system: OVCAR-8 ovarian
[52] = system: COLO 205 colon
[53] = system: MDA-MB-231 breast
[54] = system: MOLT-4 leukemia
[55] = system: T-47D breast
[56] = system: SF-539 CNS
[57] = system: MCF7 breast
[58] = system: SN12C renal

O=C1CNc2cc(N3CCN(c4ccccc4)CC3)ccc2N1
> 100 µM: TGI [1] | TGI [2] | TGI [3] | TGI [4] | TGI [5] | TGI [6] | TGI [7] | TGI [8] | TGI [9] | TGI [10] | TGI [11] | TGI [12] | TGI [13] | TGI [14] | TGI [15] | TGI [16] | TGI [17] | TGI [18] | TGI [19] | TGI [20] | TGI [21] | TGI [22] | TGI [23] | TGI [24] | TGI [25] | TGI [26] | TGI [27] | TGI [28] | TGI [29] | TGI [30] | TGI [31] | TGI [32] | TGI [33] | TGI [34] | TGI [35] | TGI [36] | TGI [37] | TGI [38] | TGI [39] | TGI [40] | TGI [41] | TGI [42] | TGI [43] | TGI [44] | TGI [45] | TGI [46] | TGI [47] | TGI [48] | TGI [49] | TGI [50] | TGI [51] | TGI [52] | TGI [53] | TGI [54] | TGI [55]

Nc1nc(-c2cccc3ccccc23)cc2ccccc12
14.9 µM: TGI [49]
11.9 µM: TGI [40]
5.44 µM: TGI [10]
1.69 µM: TGI [56]
active: GI50 [1] 0.234 µM | GI50 [8] 0.287 µM | GI50 [9] 0.278 µM | GI50 [11] 0.196 µM | GI50 [12] 0.409 µM | GI50 [13] 0.245 µM | GI50 [56] 0.291 µM | GI50 [23] 0.342 µM | GI50 [24] 0.214 µM | GI50 [30] 0.257 µM | GI50 [31] 0.324 µM | GI50 [57] 0.108 µM | GI50 [33] 0.232 µM | GI50 [35] 0.343 µM | GI50 [36] 0.358 µM | GI50 [37] 0.377 µM | GI50 [39] 0.332 µM | GI50 [42] 0.231 µM | GI50 [44] 0.386 µM | GI50 [46] 0.314 µM | GI50 [47] 0.351 µM | GI50 [50] 0.206 µM | GI50 [52] 0.332 µM | GI50 [55] 0.359 µM
18.3 µM: TGI [19]
> 100 µM: TGI [29] | TGI [33]
22.3 µM: TGI [18]
3.91 µM: TGI [13]
14.2 µM: TGI [28]
24.4 µM: TGI [6]
inactive: GI50 [2] 1 µM | GI50 [4] 0.521 µM | GI50 [5] 1.25 µM | GI50 [6] 1.6 µM | GI50 [7] 1.12 µM | GI50 [10] 0.444 µM | GI50 [14] 1.17 µM | GI50 [15] 0.563 µM | GI50 [16] 0.463 µM | GI50 [17] 0.514 µM | GI50 [18] 0.647 µM | GI50 [19] 1.1 µM | GI50 [20] 0.466 µM | GI50 [21] 0.503 µM | GI50 [25] 0.732 µM | GI50 [26] 0.494 µM | GI50 [27] 0.46 µM | GI50 [28] 0.777 µM | GI50 [29] 4.81 µM | GI50 [32] 0.549 µM | GI50 [34] 1.29 µM | GI50 [38] 6.3 µM | GI50 [58] 0.789 µM | GI50 [40] 1.63 µM | GI50 [41] 13.2 µM | GI50 [48] 0.53 µM | GI50 [49] 0.476 µM | GI50 [51] 0.577 µM | GI50 [53] 0.712 µM | GI50 [54] 0.638 µM
27.9 µM: TGI [41]
> 54.2 µM: TGI [54]
22.1 µM: TGI [16]
13.2 µM: TGI [26]
3.17 µM: TGI [1]
2.98 µM: TGI [37]
14.6 µM: TGI [4]
29.4 µM: TGI [38]
9.7 µM: TGI [44]
3.8 µM: TGI [50]
10.8 µM: TGI [48]
9.68 µM: TGI [14]
13.4 µM: TGI [17] | TGI [21] | TGI [23] | TGI [53]
33.9 µM: TGI [55]
15.9 µM: TGI [7]
17.6 µM: TGI [2]
12.9 µM: TGI [36]
24.1 µM: TGI [25]
19.6 µM: TGI [27]
17.8 µM: TGI [51]
24 µM: TGI [15]
20 µM: TGI [46]
10.3 µM: TGI [8]
13.1 µM: TGI [57]
13.8 µM: TGI [9]
2.85 µM: TGI [31]
> 44.2 µM: TGI [3]
1.12 µM: TGI [42]
19.7 µM: TGI [5]
> 40.4 µM: TGI [34]
3.96 µM: TGI [47]
12.4 µM: TGI [32]
4.08 µM: TGI [30]
13.9 µM: TGI [20]
10.6 µM: TGI [39]
16 µM: TGI [11] | TGI [58]
10.4 µM: TGI [35]
1.9 µM: TGI [52]
0.573 µM: TGI [24]
12.6 µM: TGI [12]

COc1ccc2c(c1)CC1Cc3cc(OC)c(OC)cc3CN1CC2 (centres undefined)
89 µM: TGI [1]
60.3 µM: TGI [3]
34.3 µM: TGI [33]
> 100 µM: TGI [2] | TGI [4] | TGI [5] | TGI [6] | TGI [7] | TGI [8] | TGI [9] | TGI [10] | TGI [11] | TGI [12] | TGI [13] | TGI [14] | TGI [15] | TGI [16] | TGI [17] | TGI [18] | TGI [19] | TGI [20] | TGI [21] | TGI [22] | TGI [23] | TGI [24] | TGI [25] | TGI [26] | TGI [27] | TGI [28] | TGI [29] | TGI [30] | TGI [31] | TGI [32] | TGI [34] | TGI [35] | TGI [36] | TGI [37] | TGI [38] | TGI [39] | TGI [41] | TGI [42] | TGI [43] | TGI [44] | TGI [45] | TGI [46] | TGI [47] | TGI [48] | TGI [49] | TGI [50] | TGI [51] | TGI [52] | TGI [53] | TGI [54] | TGI [55]
67.2 µM: TGI [40]
